What was measured:
B. subtilis (ATCC-6633) = assay: Broad-spectrum activity against Gram-Positive bacteria (MIC); type: cell-based; parameters: unit not given here
E. coli (ATCC BAA-2452) = assay: Broad-spectrum activity against Gram-Negative bacteria (MIC); type: cell-based; conditions: Table 16, Gram-negative panel
B. cereus (ATCC-13061) = assay: Broad-spectrum activity against Gram-Positive bacteria (MIC); type: cell-based; parameters: unit not given here
[1] = test system: A. baumannii (ATCC BAA-1605); assay: Broad-spectrum activity against Gram-Negative bacteria (MIC); type: cell-based; conditions: Table 16, Gram-negative panel
[2] = test system: P. aeruginosa (ATCC 10145); assay: as above; type: cell-based; conditions: Table 16, Gram-negative panel
[3] = test system: P. aeruginosa (ATCC BAA-1744); assay: as above; type: cell-based; conditions: Table 16, Gram-negative panel
[4] = test system: Methicillin-resistant Staphylococcus aureus MRSA (ATCC BAA-1556); conditions: MRSA ATCC BAA-1556
S. aureus ATCC 29213 = conditions: S. aureus ATCC 29213
[5] = test system: Pseudomonas aeruginosa (ATCC 27883); conditions: P. aeruginosa ATCC 27883
[6] = test system: Escherichia coli (ATCC 25922); conditions: E. coli ATCC 25922
[7] = test system: Klebsiella pneumoniae (ATCC BAA-1705); conditions: Table 16, Gram-negative panel
[8] = test system: Enterococcus faecium ATCC 27270; conditions: E. faecium ATCC 27270
[9] = test system: Enterococcus faecium ATCC 700221; conditions: E. faecium ATCC 700221
[10] = test system: Klebsiella pneumoniae ATCC 13883; conditions: Table 16, Gram-negative panel
[11] = test system: Enterococcus faecalis ATCC 29212; conditions: E. faecalis ATCC 29212
[12] = test system: Enterococcus faecalis ATCC 51575; conditions: E. faecalis ATCC 51575
[13] = test system: Streptococcus pneumoniae ATCC 49619; conditions: S. pneumoniae ATCC 49619
[14] = test system: Streptococcus pneumoniae ATCC 51938; conditions: S. pneumoniae ATCC 51938

c[Arg-Arg-Arg-Arg-Dip-dip-Dip] [IFX-061]
Broad-spectrum activity B. subtilis (ATCC-6633) (B. subtilis (ATCC-6633)): 1.5
MIC E. coli (ATCC BAA-2452) (E. coli (ATCC BAA-2452)): 12.5 µg/mL
Broad-spectrum activity B. cereus (ATCC-13061) (B. cereus (ATCC-13061)): 3.1
MIC A. baumannii (ATCC BAA-1605) [1]: 6.2 µg/mL
MIC P. aeruginosa (ATCC 10145) [2]: 25 µg/mL
MIC P. aeruginosa (ATCC BAA-1744) [3]: 12.5 µg/mL
MIC MRSA ATCC BAA-1556 [4]: 1.5 µg/mL
MIC S. aureus ATCC 29213 (S. aureus ATCC 29213): 3.1 µg/mL
MIC P. aeruginosa ATCC 27883 [5]: 12.5 µg/mL
MIC E. coli ATCC 25922 [6]: 12.5 µg/mL
MIC K. pneumonia (ATCC BAA-1705) [7]: 25 µg/mL
Broad-spectrum activity E. faecium (ATCC 27270) [8]: 3.1
Broad-spectrum activity E. faecium (ATCC 700221) [9]: 3.1
MIC K. pneumonia (ATCC 13883) [10]: 50 µg/mL
Broad-spectrum activity E. faecalis (ATCC 29212) [11]: 6.2
Broad-spectrum activity E. faecalis (ATCC 51575) [12]: 12.5
Broad-spectrum activity S. pneumoniae (ATCC 49619) [13]: 50
Broad-spectrum activity S. pneumoniae (ATCC 51938) [14]: 12.5

c[arg-arg-arg-arg-dip-Trp-dip] [IFX-095]
Broad-spectrum activity B. subtilis (ATCC-6633) (B. subtilis (ATCC-6633)): 1.5
MIC E. coli (ATCC BAA-2452) (E. coli (ATCC BAA-2452)): 25 µg/mL
Broad-spectrum activity B. cereus (ATCC-13061) (B. cereus (ATCC-13061)): 3.1
MIC A. baumannii (ATCC BAA-1605) [1]: 12.5 µg/mL
MIC P. aeruginosa (ATCC 10145) [2]: 25 µg/mL
MIC P. aeruginosa (ATCC BAA-1744) [3]: 25 µg/mL
MIC MRSA ATCC BAA-1556 [4]: 3.1 µg/mL
MIC S. aureus ATCC 29213 (S. aureus ATCC 29213): 3.1 µg/mL
MIC P. aeruginosa ATCC 27883 [5]: 12.5 µg/mL
MIC E. coli ATCC 25922 [6]: 12.5 µg/mL
MIC K. pneumonia (ATCC BAA-1705) [7]: 12.5 µg/mL
Broad-spectrum activity E. faecium (ATCC 27270) [8]: 3.1
Broad-spectrum activity E. faecium (ATCC 700221) [9]: 6.2
MIC K. pneumonia (ATCC 13883) [10]: 50 µg/mL
Broad-spectrum activity E. faecalis (ATCC 29212) [11]: 6.2
Broad-spectrum activity E. faecalis (ATCC 51575) [12]: 12.5
Broad-spectrum activity S. pneumoniae (ATCC 49619) [13]: 50
Broad-spectrum activity S. pneumoniae (ATCC 51938) [14]: 12.5

c[Arg-Arg-Arg-arg-Dip-Dip-Dip] [IFX-063]
Broad-spectrum activity B. subtilis (ATCC-6633) (B. subtilis (ATCC-6633)): 1.5
MIC E. coli (ATCC BAA-2452) (E. coli (ATCC BAA-2452)): 12.5 µg/mL
Broad-spectrum activity B. cereus (ATCC-13061) (B. cereus (ATCC-13061)): 3.1
MIC A. baumannii (ATCC BAA-1605) [1]: 6.2 µg/mL
MIC P. aeruginosa (ATCC 10145) [2]: 25 µg/mL
MIC P. aeruginosa (ATCC BAA-1744) [3]: 25 µg/mL
MIC MRSA ATCC BAA-1556 [4]: 3.1 µg/mL
MIC S. aureus ATCC 29213 (S. aureus ATCC 29213): 3.1 µg/mL
MIC P. aeruginosa ATCC 27883 [5]: 12.5 µg/mL
MIC E. coli ATCC 25922 [6]: 12.5 µg/mL
MIC K. pneumonia (ATCC BAA-1705) [7]: 12.5 µg/mL
Broad-spectrum activity E. faecium (ATCC 27270) [8]: 3.1
Broad-spectrum activity E. faecium (ATCC 700221) [9]: 1.5
MIC K. pneumonia (ATCC 13883) [10]: 50 µg/mL
Broad-spectrum activity E. faecalis (ATCC 29212) [11]: 6.2
Broad-spectrum activity E. faecalis (ATCC 51575) [12]: 12.5
Broad-spectrum activity S. pneumoniae (ATCC 49619) [13]: 25
Broad-spectrum activity S. pneumoniae (ATCC 51938) [14]: 12.5

c[arg-arg-arg-arg-NaI-trp-NaI] [IFX-141]
Broad-spectrum activity B. subtilis (ATCC-6633) (B. subtilis (ATCC-6633)): 1.5
MIC E. coli (ATCC BAA-2452) (E. coli (ATCC BAA-2452)): 25 µg/mL
Broad-spectrum activity B. cereus (ATCC-13061) (B. cereus (ATCC-13061)): 3.1
MIC A. baumannii (ATCC BAA-1605) [1]: 12.5 µg/mL
MIC P. aeruginosa (ATCC 10145) [2]: 25 µg/mL
MIC P. aeruginosa (ATCC BAA-1744) [3]: 25 µg/mL
MIC MRSA ATCC BAA-1556 [4]: 6.2 µg/mL
MIC S. aureus ATCC 29213 (S. aureus ATCC 29213): 3.1 µg/mL
MIC P. aeruginosa ATCC 27883 [5]: 32 µg/mL
MIC E. coli ATCC 25922 [6]: 32 µg/mL
MIC K. pneumonia (ATCC BAA-1705) [7]: > 50 µg/mL
Broad-spectrum activity E. faecium (ATCC 27270) [8]: 6.2
Broad-spectrum activity E. faecium (ATCC 700221) [9]: 6.2
MIC K. pneumonia (ATCC 13883) [10]: 50 µg/mL
Broad-spectrum activity E. faecalis (ATCC 29212) [11]: 6.2
Broad-spectrum activity E. faecalis (ATCC 51575) [12]: 12.5
Broad-spectrum activity S. pneumoniae (ATCC 49619) [13]: 50
Broad-spectrum activity S. pneumoniae (ATCC 51938) [14]: 12.5

c[Arg-arg-Arg-Arg-Dip-Dip-Dip] [IFX-065]
Broad-spectrum activity B. subtilis (ATCC-6633) (B. subtilis (ATCC-6633)): 1.5
MIC E. coli (ATCC BAA-2452) (E. coli (ATCC BAA-2452)): 6.2 µg/mL
Broad-spectrum activity B. cereus (ATCC-13061) (B. cereus (ATCC-13061)): 3.1
MIC A. baumannii (ATCC BAA-1605) [1]: 6.2 µg/mL
MIC P. aeruginosa (ATCC 10145) [2]: 12.5 µg/mL
MIC P. aeruginosa (ATCC BAA-1744) [3]: 12.5 µg/mL
MIC MRSA ATCC BAA-1556 [4]: 1.5 µg/mL
MIC S. aureus ATCC 29213 (S. aureus ATCC 29213): 3.1 µg/mL
MIC P. aeruginosa ATCC 27883 [5]: 12.5 µg/mL
MIC E. coli ATCC 25922 [6]: 12.5 µg/mL
MIC K. pneumonia (ATCC BAA-1705) [7]: 12.5 µg/mL
Broad-spectrum activity E. faecium (ATCC 27270) [8]: 3.1
Broad-spectrum activity E. faecium (ATCC 700221) [9]: 3.1
MIC K. pneumonia (ATCC 13883) [10]: 50 µg/mL
Broad-spectrum activity E. faecalis (ATCC 29212) [11]: 6.2
Broad-spectrum activity E. faecalis (ATCC 51575) [12]: 12.5
Broad-spectrum activity S. pneumoniae (ATCC 49619) [13]: 25
Broad-spectrum activity S. pneumoniae (ATCC 51938) [14]: 12.5

Reference: patent US20220289794A1, “SYNTHETIC ANTIMICROBIAL PEPTIDES” (priority 2019, published 2022)
